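Protocol summary: plate cells (96-well), add compound at 5 concentrations, incubate 48 h, interpolate endpoints linearly. Abbreviation: GI50, concentration required for 50% inhibition of growth. TGI is the concentration that stops growth completely.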
Key:
Assay in all cases: DTP human tumour cell line panel, 48 h
A498 renal = system: A498 renal
ACHN renal = system: ACHN renal
HCC-2998 colon = system: HCC-2998 colon
HT29 colon = system: HT29 colon
KM12 colon = system: KM12 colon
MOLT-4 leukemia = system: MOLT-4 leukemia
SK-MEL-28 melanoma = system: SK-MEL-28 melanoma
U251 CNS = system: U251 CNS
MDA-N = system: MDA-N
T-47D breast = system: T-47D breast

SMILES	TGI (A498 renal)	TGI (ACHN renal)	TGI (HCC-2998 colon)	TGI (HT29 colon)	TGI (KM12 colon)	TGI (MOLT-4 leukemia)	TGI (SK-MEL-28 melanoma)	TGI (U251 CNS)	TGI (MDA-N)	TGI (T-47D breast)	GI50 (A498 renal)	GI50 (ACHN renal)	GI50 (HCC-2998 colon)	GI50 (HT29 colon)	GI50 (KM12 colon)	GI50 (MOLT-4 leukemia)	GI50 (SK-MEL-28 melanoma)	GI50 (T-47D breast)	GI50 (U251 CNS)
NC(=O)C(=O)N/N=C1/c2ccccc2CC1C1(O)C(=O)Nc2c(Cl)cc(Cl)cc21 (configuration not stated)	> 100 µM	> 100 µM	> 100 µM	> 100 µM	> 100 µM	> 100 µM	> 100 µM	> 100 µM	–	–	–	–	–	–	–	–	–	–	–
COc1cc(OCc2ccc3oc(=O)c(-c4ccccc4)nc3c2)cc(OC)c1OC	> 100 µM	> 100 µM	> 100 µM	> 100 µM	–	> 100 µM	> 100 µM	> 100 µM	> 100 µM	> 100 µM	–	–	–	–	–	–	–	–	–
C[n+]1c(-c2ccccc2)cc2/c(=C\c3ccc([N+](=O)[O-])cc3)c3ccccc3n21	> 100 µM	> 38.5 µM	> 100 µM	> 32.6 µM	17.8 µM	> 30.8 µM	24 µM	19.8 µM	21.8 µM	–	–	–	–	–	–	–	–	–	–
COc1cc(/C=C/C(=O)O)ccc1C(=O)O/C=C/c1ccccc1	> 100 µM	–	–	> 100 µM	> 100 µM	> 100 µM	> 100 µM	> 100 µM	–	–	–	–	–	–	–	–	–	–	–
CCCCN1CCN(c2ccc3nc(-c4ccc5nc(-c6ccc(C(F)(F)F)cc6)[nH]c5c4)[nH]c3c2)CC1	3.45 µM	2.68 µM	3.55 µM	1.45 µM	2.68 µM	2.59 µM	3.19 µM	2.96 µM	–	3.19 µM	1.78 µM	1.38 µM	1.84 µM	0.385 µM	1.12 µM	1.07 µM	1.69 µM	1.38 µM	1.59 µM
COCOc1ccc(OC)cc1	> 100 µM	–	> 100 µM	> 100 µM	> 100 µM	> 100 µM	> 100 µM	> 100 µM	–	–	–	–	–	–	–	–	–	–	–
CCC[C@H]1C(=O)N=C(N)N1C(=O)OCc1ccccc1	> 100 µM	> 100 µM	> 100 µM	> 100 µM	> 100 µM	> 100 µM	> 100 µM	> 100 µM	> 100 µM	–	–	–	–	–	–	–	–	–	–
C/C(=C\c1ccccc1)C(=O)CCN1CCOCC1	> 100 µM	–	34.4 µM	35.7 µM	31.2 µM	> 62.3 µM	35.4 µM	30.7 µM	–	–	–	–	–	–	–	–	–	–	–
COc1cc(C2c3cc4c(cc3OC(NN=C(C)C)C2C)OCO4)cc(OC)c1O (configuration not stated)	–	–	31.6 µM	> 100 µM	> 100 µM	–	> 100 µM	> 100 µM	11.6 µM	> 100 µM	–	–	–	–	–	–	–	–	–
CCOP(=O)(OCC)C1C(CO)OC(n2ccc(=O)[nH]c2=O)C1O (configuration not stated)	> 100 µM	> 100 µM	> 100 µM	> 100 µM	> 100 µM	–	> 100 µM	–	> 100 µM	> 100 µM	–	–	–	–	–	–	–	–	–
CC(C)(C)N=c1n(C(C)(C)C)oc(=O)n1C(C)(C)C	> 100 µM	> 100 µM	> 100 µM	> 100 µM	> 100 µM	> 100 µM	> 100 µM	> 100 µM	> 100 µM	–	–	–	–	–	–	–	–	–	–

Reference: PubChem BioAssay (NCI)
